Data from PubChem BioAssay AID1918943 (Molecular Pharmacology Branch, DTP, NCI, 2023).
pIC50: −log10 of the molar value.

System: 855422-203-R-J1-PDC complex spheroid viability
Test: Anticancer human tumor 855422-203-R-J1-PDC patient-derived bladder carcinoma cell line growth inhibition
Details: for viability, T/C: stronger effect = lower value
Method in brief: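 Complex spheroids of tumor cells with HUVEC and human MSCs, exposed to iadademstat combined with other agents. Each agent tested in half-log steps from near clinical Cmax (else 10 microM top), DMSO ≤0.25%.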

[1] = curve of first compound, second compound 0.1 µM
[2] = curve of first compound, second compound 0.316 µM
[3] = curve of first compound, second compound 1 µM
[4] = curve of first compound, second compound 3.16 µM
[5] = curve of first compound, second compound 10 µM
[6] = second compound 0.1 µM, first compound 0.000316 µM
[7] = second compound 0.1 µM, first compound 0.001 µM
[8] = second compound 0.1 µM, first compound 0.00316 µM
[9] = second compound 0.1 µM, first compound 0.01 µM
[10] = second compound 0.1 µM, first compound 0.0316 µM
[11] = second compound 0.1 µM, first compound 0.1 µM
[12] = second compound 0.316 µM, first compound 0.000316 µM
[13] = second compound 0.316 µM, first compound 0.001 µM
[14] = second compound 0.316 µM, first compound 0.00316 µM
[15] = second compound 0.316 µM, first compound 0.01 µM
[16] = second compound 0.316 µM, first compound 0.0316 µM
[17] = second compound 0.316 µM, first compound 0.1 µM
[18] = second compound 1 µM, first compound 0.000316 µM
[19] = second compound 1 µM, first compound 0.001 µM
[20] = second compound 1 µM, first compound 0.00316 µM
[21] = second compound 1 µM, first compound 0.01 µM
[22] = second compound 1 µM, first compound 0.0316 µM
[23] = second compound 1 µM, first compound 0.1 µM
[24] = second compound 3.16 µM, first compound 0.000316 µM
[25] = second compound 3.16 µM, first compound 0.001 µM
[26] = second compound 3.16 µM, first compound 0.00316 µM
[27] = second compound 3.16 µM, first compound 0.01 µM
[28] = second compound 3.16 µM, first compound 0.0316 µM
[29] = second compound 3.16 µM, first compound 0.1 µM
[30] = second compound 10 µM, first compound 0.000316 µM
[31] = second compound 10 µM, first compound 0.001 µM
[32] = second compound 10 µM, first compound 0.00316 µM
[33] = second compound 10 µM, first compound 0.01 µM
[34] = second compound 10 µM, first compound 0.0316 µM
[35] = second compound 10 µM, first compound 0.1 µM
[36] = second compound 0.1 µM, first compound 0.00949 µM
[37] = second compound 0.1 µM, first compound 0.03 µM
[38] = second compound 0.1 µM, first compound 0.0949 µM
[39] = second compound 0.1 µM, first compound 0.3 µM
[40] = second compound 0.1 µM, first compound 0.949 µM
[41] = second compound 0.1 µM, first compound 3 µM
[42] = second compound 0.316 µM, first compound 0.00949 µM
[43] = second compound 0.316 µM, first compound 0.03 µM
[44] = second compound 0.316 µM, first compound 0.0949 µM
[45] = second compound 0.316 µM, first compound 0.3 µM
[46] = second compound 0.316 µM, first compound 0.949 µM
[47] = second compound 0.316 µM, first compound 3 µM
[48] = second compound 1 µM, first compound 0.00949 µM
[49] = second compound 1 µM, first compound 0.03 µM
[50] = second compound 1 µM, first compound 0.0949 µM
[51] = second compound 1 µM, first compound 0.3 µM
[52] = second compound 1 µM, first compound 0.949 µM
[53] = second compound 1 µM, first compound 3 µM
[54] = second compound 3.16 µM, first compound 0.00949 µM
[55] = second compound 3.16 µM, first compound 0.03 µM
[56] = second compound 3.16 µM, first compound 0.0949 µM
[57] = second compound 3.16 µM, first compound 0.3 µM
[58] = second compound 3.16 µM, first compound 0.949 µM
[59] = second compound 3.16 µM, first compound 3 µM
[60] = second compound 10 µM, first compound 0.00949 µM
[61] = second compound 10 µM, first compound 0.03 µM
[62] = second compound 10 µM, first compound 0.0949 µM
[63] = second compound 10 µM, first compound 0.3 µM
[64] = second compound 10 µM, first compound 0.949 µM
[65] = second compound 10 µM, first compound 3 µM
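Also: drug exposure lasted 7 days starting on day 3 after seeding.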
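For viability, T/C in this document: luminescence viability as percent of DMSO vehicle wells = 100%.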

Cn1ncnc1C1c2n[nH]c(=O)c3cc(F)cc(c23)NC1c1ccc(F)cc1 (centres undefined) + NC1CCC(NC2CC2c2ccccc2)CC1
pIC50 [1]: < 7.00
pIC50 [2]: < 7.00
pIC50 [3]: < 7.00
pIC50 [4]: < 7.00
pIC50 [5]: < 7.00
viability, T/C [6]: 104%
viability, T/C [7]: 94.4%
viability, T/C [8]: 97.1%
viability, T/C [9]: 86.5%
viability, T/C [10]: 78%
viability, T/C [11]: 77.5%
viability, T/C [12]: 90%
viability, T/C [13]: 92.4%
viability, T/C [14]: 84.3%
viability, T/C [15]: 83.9%
viability, T/C [16]: 90.7%
viability, T/C [17]: 82.3%
viability, T/C [18]: 88%
viability, T/C [19]: 86.1%
viability, T/C [20]: 109%
viability, T/C [21]: 86.2%
viability, T/C [22]: 92.9%
viability, T/C [23]: 81.3%
viability, T/C [24]: 89.4%
viability, T/C [25]: 97%
viability, T/C [26]: 109%
viability, T/C [27]: 78.2%
viability, T/C [28]: 77.4%
viability, T/C [29]: 74.8%
viability, T/C [30]: 82.7%
viability, T/C [31]: 78.5%
viability, T/C [32]: 101%
viability, T/C [33]: 70.6%
viability, T/C [34]: 74.6%
viability, T/C [35]: 69.1%

CC(C)CC(NC(=O)C(Cc1ccccc1)NC(=O)c1cnccn1)B(O)O (centres undefined) + NC1CC1c1ccc(-c2cccc(O)c2)cc1
pIC50 [1]: 9.19
pIC50 [2]: 9.20
pIC50 [3]: 9.21
pIC50 [4]: 9.22
pIC50 [5]: 9.24
viability, T/C [6]: 127%
viability, T/C [7]: 1.42%
viability, T/C [8]: 0.04%
viability, T/C [9]: 0.01%
viability, T/C [10]: 0.03%
viability, T/C [11]: 0.14%
viability, T/C [12]: 122%
viability, T/C [13]: 1.03%
viability, T/C [14]: 0.02%
viability, T/C [15]: 0.01%
viability, T/C [16]: 0.02%
viability, T/C [17]: 0.11%
viability, T/C [18]: 115%
viability, T/C [19]: 0.89%
viability, T/C [20]: 0.02%
viability, T/C [21]: 0.01%
viability, T/C [22]: 0.02%
viability, T/C [23]: 0.12%
viability, T/C [24]: 113%
viability, T/C [25]: 0.68%
viability, T/C [26]: 0.03%
viability, T/C [27]: 0.02%
viability, T/C [28]: 0.03%
viability, T/C [29]: 0.12%
viability, T/C [30]: 105%
viability, T/C [31]: 0.52%
viability, T/C [32]: 0.15%
viability, T/C [33]: 0.14%
viability, T/C [34]: 0.13%
viability, T/C [35]: 0.19%

NC1CC1c1ccc(-c2cccc(O)c2)cc1 (centres undefined)
viability, T/C (compound 0.1 µM): 84.2%
viability, T/C (compound 0.316 µM): 93.7% [middle of 25 runs]
viability, T/C (compound 1 µM): 90.2% [middle of 25 runs]
pIC50 (compound alone, run of 12/07/2021): < 5.00

CC(C)CC(NC(=O)CNC(=O)c1cc(Cl)ccc1Cl)B1OC(=O)CC(CC(=O)O)(C(=O)O)O1 (centres undefined) + NC1CC1c1ccc(-c2cccc(O)c2)cc1
pIC50 [1]: 8.74
pIC50 [2]: 8.74
pIC50 [3]: 8.74
pIC50 [4]: 8.76
pIC50 [5]: 8.81
viability, T/C [6]: 92.8%
viability, T/C [7]: 104%
viability, T/C [8]: 3.7%
viability, T/C [9]: 0.43%
viability, T/C [10]: 0.02%
viability, T/C [11]: 0.13%
viability, T/C [12]: 104%
viability, T/C [13]: 102%
viability, T/C [14]: 3.27%
viability, T/C [15]: 1.25%
viability, T/C [16]: 0.02%
viability, T/C [17]: 0.1%
viability, T/C [18]: 94.6%
viability, T/C [19]: 108%
viability, T/C [20]: 3.81%
viability, T/C [21]: 1.65%
viability, T/C [22]: 0.03%
viability, T/C [23]: 0.11%
viability, T/C [24]: 95%
viability, T/C [25]: 94.6%
viability, T/C [26]: 3.11%
viability, T/C [27]: 1%
viability, T/C [28]: 0.03%
viability, T/C [29]: 0.1%
viability, T/C [30]: 92%
viability, T/C [31]: 78.9%
viability, T/C [32]: 2.61%
viability, T/C [33]: 0.2%
viability, T/C [34]: 0.11%
viability, T/C [35]: 0.17%

COc1cc(C2c3cc4c(cc3C(OC3OC5COC(C)OC5C(O)C3O)C3COC(=O)C23)OCO4)cc(OC)c1O (centres undefined) + NC1CC1c1ccc(-c2cccc(O)c2)cc1
pIC50 [1]: 6.83
pIC50 [2]: 6.81
pIC50 [3]: 6.89
pIC50 [4]: 6.92
pIC50 [5]: 7.04
viability, T/C [36]: 96.3%
viability, T/C [37]: 98.3%
viability, T/C [38]: 59.5%
viability, T/C [39]: 31.1%
viability, T/C [40]: 19.7%
viability, T/C [41]: 10.7%
viability, T/C [42]: 101%
viability, T/C [43]: 102%
viability, T/C [44]: 60.9%
viability, T/C [45]: 32.6%
viability, T/C [46]: 19.7%
viability, T/C [47]: 11.6%
viability, T/C [48]: 91.6%
viability, T/C [49]: 95.8%
viability, T/C [50]: 55.4%
viability, T/C [51]: 28.9%
viability, T/C [52]: 17.6%
viability, T/C [53]: 10.9%
viability, T/C [54]: 100%
viability, T/C [55]: 96.9%
viability, T/C [56]: 52.3%
viability, T/C [57]: 27.9%
viability, T/C [58]: 16.2%
viability, T/C [59]: 8.34%
viability, T/C [60]: 99.5%
viability, T/C [61]: 97%
viability, T/C [62]: 46.5%
viability, T/C [63]: 26.6%
viability, T/C [64]: 18.4%
viability, T/C [65]: 9.12%

Nc1ccccc1NC(=O)c1ccc(CNC(=O)OCc2cccnc2)cc1 + NC1CC1c1ccc(-c2cccc(O)c2)cc1
pIC50 [1]: 5.91
pIC50 [2]: 5.89
pIC50 [3]: 5.97
pIC50 [4]: 6.00
pIC50 [5]: 5.99
viability, T/C [36]: 90.3%
viability, T/C [37]: 91.2%
viability, T/C [38]: 98.5%
viability, T/C [39]: 97.8%
viability, T/C [40]: 60.8%
viability, T/C [41]: 11.8%
viability, T/C [42]: 95.3%
viability, T/C [43]: 92.6%
viability, T/C [44]: 104%
viability, T/C [45]: 96.4%
viability, T/C [46]: 65.9%
viability, T/C [47]: 7.62%
viability, T/C [48]: 89.4%
viability, T/C [49]: 90.4%
viability, T/C [50]: 85.9%
viability, T/C [51]: 82.8%
viability, T/C [52]: 54.7%
viability, T/C [53]: 6.8%
viability, T/C [54]: 87.9%
viability, T/C [55]: 86.6%
viability, T/C [56]: 91%
viability, T/C [57]: 90.2%
viability, T/C [58]: 51.9%
viability, T/C [59]: 5.73%
viability, T/C [60]: 98.7%
viability, T/C [61]: 91.3%
viability, T/C [62]: 91.1%
viability, T/C [63]: 87.4%
viability, T/C [64]: 53.5%
viability, T/C [65]: 2.03%

O=C(C=Cc1cccc(S(=O)(=O)Nc2ccccc2)c1)NO + NC1CCC(NC2CC2c2ccccc2)CC1
pIC50 [1]: 6.34
pIC50 [2]: 6.33
pIC50 [3]: 6.53
pIC50 [4]: 6.46
pIC50 [5]: 6.45
viability, T/C [36]: 88.3%
viability, T/C [37]: 88.7%
viability, T/C [38]: 91.3%
viability, T/C [39]: 68.9%
viability, T/C [40]: 15.2%
viability, T/C [41]: 0.2%
viability, T/C [42]: 96.1%
viability, T/C [43]: 88.6%
viability, T/C [44]: 80.7%
viability, T/C [45]: 71.8%
viability, T/C [46]: 17.4%
viability, T/C [47]: 0.2%
viability, T/C [48]: 98%
viability, T/C [49]: 90.1%
viability, T/C [50]: 67.7%
viability, T/C [51]: 59.2%
viability, T/C [52]: 13.4%
viability, T/C [53]: 0.17%
viability, T/C [54]: 94%
viability, T/C [55]: 92%
viability, T/C [56]: 81.6%
viability, T/C [57]: 57.4%
viability, T/C [58]: 7.23%
viability, T/C [59]: 0.14%
viability, T/C [60]: 90.8%
viability, T/C [61]: 82.7%
viability, T/C [62]: 78.9%
viability, T/C [63]: 58.5%
viability, T/C [64]: 5.21%
viability, T/C [65]: 0.59%
